This passage reports Ki results from ChEMBL document CHEMBL1151589, “Synthesis and inhibitory activity of optically active 2-benzyl-3-mercaptopropanoic acid against carboxypeptidase A” (Bioorg Med Chem Lett, 1993).

The target in assay [1] is T1, Mast cell carboxypeptidase A (Homo sapiens, UniProt P15088).
T1 sequence (P15088 whole entry): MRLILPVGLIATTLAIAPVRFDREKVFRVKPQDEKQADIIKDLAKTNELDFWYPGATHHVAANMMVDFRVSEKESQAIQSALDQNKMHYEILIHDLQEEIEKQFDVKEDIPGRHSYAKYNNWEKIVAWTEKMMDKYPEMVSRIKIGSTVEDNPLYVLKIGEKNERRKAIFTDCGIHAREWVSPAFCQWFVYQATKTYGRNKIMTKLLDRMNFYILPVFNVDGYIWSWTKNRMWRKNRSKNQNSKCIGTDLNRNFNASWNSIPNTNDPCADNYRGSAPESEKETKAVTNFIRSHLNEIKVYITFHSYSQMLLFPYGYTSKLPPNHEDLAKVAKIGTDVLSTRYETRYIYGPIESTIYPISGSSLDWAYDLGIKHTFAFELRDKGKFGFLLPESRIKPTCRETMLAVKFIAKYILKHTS
The assay is described as follows: Compound was tested for inhibitory activity against carboxypeptidase A; Not active.

Assay [2] in a line: Compound was tested for inhibitory activity against Carboxypeptidase A.

Usually Ki stands for a dissociation constant, usually derived from enzyme kinetics or from competition with a known ligand. Low readings indicate a stronger hold on the target, high ones a looser hold on the target. Regarding `O=C(O)[C@H](CS)Cc1ccccc1`, the Ki result in assay [1] was “Not Active”.

Compound `O=C(O)C(CS)Cc1ccccc1` (racemic) displayed a Ki in assay [2] of 11 µM.
